Reference: patent publication US12312333B2, “SK channel positive allosteric modulators” (Chapman University, priority 2021, dated 2025)
Entries after “also recorded” stand apart in the source; their conditions may differ.

What was measured:
rat KCa2.2a [1] = target: T1, rat KCa2.2a (UniProt P0DP23+P70604); conditions: KCa2.2/KCa2.3 vs KCa2.1/KCa3.1; cited from earlier work
T1 construct: expressed in transfected cells; host or cells: HEK293

rat KCa2.2a [2] = target: T1, rat KCa2.2a; experiment: Inside-out patch-clamp potentiation of KCa2.2a channels expressed in HEK293 cells; assay type: cell-based; conditions: for Emax: current at −90 mV at maximal compound concentration normalized to 10 μM Ca2+, read-out: Emax on KCa2.2a channels (I/Imax); for EC50: HEK293, 0.15 μM Ca2+, current at −90 mV, read-out: EC50 (mean ± SEM, μM) on potentiating KCa2.2a channels; for efficacy (Emax) on KCa2.2a channels: normalized to 10 μM Ca2+
Method: The impact of adding one substituent group at C4 of the cyclohexane moiety of CyPPA with either electron donating (OH (2a), NH2 (2b), CH2OH (2c), and OCH3 (2d)) or electron-withdrawing groups (F (2e) and NO2 (2f)) was explored. The potency of the newly synthesized compounds compared to the template CyPPA was measured via inside-out patch clamp electrophysiology recordings with KCa2.2a channels heterologously expressed in HEK293 cells (FIG. 1A). […] The responses induced by 10 μM Ca^2+ are considered the maximal currents of the KCa2.2a channels. To evaluate the efficacy (Emax) of compounds on KCa2.2a channels, the current amplitudes at −90 mV in response to the maximal concentration of compounds were normalized to that obtained at 10 μM Ca^2+ (I/Imax (%), FIG. 1C).
The effect of newly synthesized compounds on the KCa2.x/KCa3.1 channels was investigated as previously described (Nam, Y. W.; et al, Acta Physiol (Oxf) 2020, e13552; Nam, Y. W.; et al. Scientific reports 2018, 8 (1), 10749). Briefly, the rat KCa2.2a, human KCa2.1, human KCa2.3 or human KCa3.1 channels cDNA constructs were either generated in-house or through molecular cloning services (Genscript). The channel cDNAs, along with CaM and GFP, at a ratio of 7:4:2 (ORF ratios), were transfected into HEK293 cells by the calcium-phosphate method. KCa currents were recorded 1-2 days after transfection, with an Axon200B amplifier (Molecular Devices) at room temperature. The resistance of the patch electrodes ranged from 3-5 MΩ. The pipette solution contained (in mM): 140 KCl, 10 Hepes (pH 7.4), 1 MgSO4. The bath solution containing (in mM): 140 KCl, 10 Hepes (pH 7.2), 1 EGTA, 0.1 Dibromo-BAPTA, and 1 HEDTA was mixed with Ca^2+ to obtain the desired free Ca^2+ concentrations, calculated using the software by Chris Patton of Stanford University (https://somapp.ucdmc.ucdavis.edu/pharmacology/bers/maxchelator/webmaxc/webmaxcS.htm). The Ca^2+ concentrations were verified using a Ca^2+ calibration buffer kit (Thermo Fisher Scientific). Briefly, a standard curve was generated using the Ca^2+ buffers from the kit and a fluorescence Ca^2+ indicator. Then, the Ca^2+ concentrations of the bath solution were determined through interpolation on the standard curve.
High resistance seals (>1 GΩ) were formed before inside-out patches were obtained. The seal resistance of inside-out patches was >1 GΩ, when the intracellular face was initially exposed to a zero-Ca^2+ bath solution. Currents were recorded by repetitive 1-s-voltage ramps from −100 mV to +100 mV from a holding potential of 0 mV. The currents were filtered at 2 kHz and digitized at a sampling frequency of 10 kHz. At the end of experiment, the integrity of the patch was examined by switching the bath solution back to the zero-Ca^2+ buffer. Data from patches, which maintained the seal resistance (>1 GΩ) after solution changes, were used for further analysis.
To measure the effect of CyPPA (Alomone Labs) and newly synthesized compounds, the intracellular face was exposed to bath solutions with 0.15 μM Ca^2+. One minute after switching of bath solutions, ten sweeps with a 1-s interval were recorded at a series of concentrations of compound in the presence of 0.15 μM Ca^2+. The maximal KCa2.x/KCa3.1 current in response to 10 μM Ca^2+ was then recorded.
Patch-clamp recordings were analyzed using Clampfit 10.5 (Molecular Devices LLC) and concentration-response curves were analyzed in GraphPad Prism 9.0.2 (GraphPad Software Inc.). To construct the concentration-dependent potentiation of channel activities by compound, the current amplitudes at −90 mV in response to various concentrations of the compound were normalized to that obtained at a maximal concentration of compound. The normalized currents were plotted as a function of the concentrations of the compound. EC50 values and Hill coefficients were determined by fitting the data points to a standard concentration-response curve (Y=100/(1+(X/EC50)^−Hill)). […]

human KCa2.3 channels = target: T2, human KCa2.3 channels (Homo sapiens, UniProt P0DP23+Q9UGI6); conditions: cited from earlier work
T2 construct: expressed in transfected cells; host or cells: HEK293

[3] = Solubility noted during patch-clamp concentration-response; assay type: physicochemical; conditions: bath solution, 200 μM

Compound	Emax (rat KCa2.2a [2]; HEK293) [%]	EC50 (rat KCa2.2a [2]; inside-out patch) [µM]	efficacy (Emax) on KCa2.2a channels (rat KCa2.2a [2])	also measured
Cc1cc(NC2CCCCC2)nc(-n2nc(C)cc2C)n1 [CyPPA, N-cyclohexyl-2-(3,5-dimethyl-1H-pyrazol-1-yl)-6-methylpyrimidin-4-amine]	82.4 ± 4.91	7.48 ± 0.56		subtype selectivity, previously reported (rat KCa2.2a [1]): selectively potentiates KCa2.2a and KCa2.3, but not KCa2.1 and KCa3.1 channel subtypes; also recorded: potentiate the KCa2.2 and KCa2.3, but not the KCa2.1 and KCa3.1 channel subtypes; potency on KCa2.3 compared to KCa2.2a channels, background statement (human KCa2.3 channels): slightly but significantly higher potency on KCa2.3 channels than KCa2.2a channels
Cc1cc(Nc2cc(C(=O)O)ccc2F)nc(-n2nc(C)cc2C)n1 [Compound 2v, 3-((2-(3,5-Dimethyl-1H-pyrazol-1-yl)-6-methylpyrimidin-4-yl)amino)-4-fluorobenzoic acid]	50 ± 5.78	37.6 ± 3.66	reduced efficacy	solubility [3]: limited solubility at 200 μM
Cc1cc(Nc2ccc(C(F)(F)F)c(Cl)c2)nc(-n2nc(C)cc2C)n1 [Compound 2t, N-(3-Chloro-4-(trifluoromethyl)phenyl)-2-(3,5-dimethyl-1H-pyrazol-1-yl)-6-methyl-pyrimidin-4-amine]		3.27 ± 0.3		
Cc1cn(-c2nc(C)cc(Nc3ccc(F)c(Cl)c3)n2)cn1 [Compound 5b, N-(3-Chloro-4-fluorophenyl)-6-methyl-2-(4-methyl-1H-imidazol-1-yl)pyrimidin-4-amine]		38.8 ± 4.02	decreased compared with 2o	activity / potency on KCa2.2a channels (rat KCa2.2a [2]; inside-out patch, HEK293): drastically reduced compared with 2o
Cc1cc(NC2CCC(N)CC2)nc(-n2nc(C)cc2C)n1 (centres unmarked) [Compound 2b, N^1-(2-(3,5-Dimethyl-1H-pyrazol-1-yl)-6-methylpyrimidin-4-yl)cyclohexane-1,4-diamine]		> 100		
Cc1cc(Nc2cc(F)ccc2F)nc(-n2nc(C)cc2C)n1 [Compound 2n, N-(2,5-Difluorophenyl)-2-(3,5-dimethyl-1H-pyrazol-1-yl)-6-methylpyrimidin-4-amine]		1.89 ± 0.16		
